Measurements reported in PubChem BioAssay (NCI).
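1) Cells in 96-well plates. 2) Compound, 48 h, 5 concentrations. 3) Linear interpolation between surrounding doses. 4) Unreached endpoint = highest concentration. TGI: concentration producing complete growth inhibition.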

Tests used:
Assay in all cases: NCI tumour cell line growth inhibition, 48 h
[1] = test system: P388 leukemia
[2] = test system: P388/ADR leukemia
[3] = test system: XF 498 CNS
[4] = test system: M19-MEL melanoma
[5] = test system: SN12K1 renal
[6] = test system: HOP-18 NSCLC
[7] = test system: LXFL 529 NSCLC
[8] = test system: RXF-631 renal

| SMILES | TGI [1] [µM] | TGI [2] [µM] | TGI [3] [µM] | TGI [4] [µM] | TGI [5] [µM] | TGI [6] [µM] | TGI [7] [µM] | TGI [8] [µM] |
| --- | --- | --- | --- | --- | --- | --- | --- | --- |
| CCN1CC2(CO)CCC(OC)C34C5CC6C(OC)CC(O)(C5C6OC)C(O)(C(OC)C23)C14 (stereo not drawn) | > 174 | > 80.8 | > 375 | > 375 | > 375 | > 375 | – | – |
| O/N=C1/C(=C/c2ccc(Br)cc2)CCCC1C(NO)c1ccc(Br)cc1 (stereo not drawn) | – | – | – | 32.1 | – | 33.8 | 27.9 | 30.8 |
| CC(C)c1cccc(C(C)C)c1NC(=O)/C(Cc1nc2ccc(Cl)cc2[nH]c1=O)=N\NC(=O)C[N+](C)(C)C | – | – | – | > 100 | – | – | – | > 100 |
| CC(=O)Nc1ccc(S(=O)(=O)Nc2cnc3ccccc3n2)cc1 | – | – | > 100 | > 100 | – | > 100 | > 100 | – |
| O=C1C(Nc2ccc(S(=O)(=O)Nc3cnc4ccccc4n3)cc2)=CC(=Nc2ccc(S(=O)(=O)Nc3cnc4ccccc4n3)cc2)c2ccccc21 | – | – | 59.2 | 30.8 | – | 26.9 | 29.5 | – |
| O=C(Cn1cc(I)c(C(=O)NCC(O)CO)n1)NCC(O)CO (stereo not drawn) | – | – | > 100 | > 100 | – | > 100 | > 100 | – |
| Cc1ccc(C2=C(c3ccccc3)C(O)(c3ccccc3)C(c3ccccc3)=C2c2ccc(C)cc2)cc1 | – | – | > 100 | > 100 | – | > 100 | > 100 | > 100 |
| COc1ccc(/C=N/NC(=O)NCCNCCO)cc1 | – | – | – | > 100 | – | > 100 | > 100 | – |
| CC(C)C(N=C1CC2CCC1(C(=O)Nc1ccccc1O)C2(C)C)c1ccccc1 (stereo not drawn) | – | – | > 10 | > 10 | – | > 10 | > 10 | > 10 |
| c1ccc(C2SCc3nc4ccccc4n32)cc1 (stereo not drawn) | – | – | 95.4 | > 100 | – | 51.7 | – | – |
| C#CCN(Cc1ccc2nc(-c3ccccc3)c(Cl)nc2c1)c1ccc(Cl)c(Cl)c1 | – | – | > 100 | > 100 | – | > 100 | > 100 | – |
| N#Cc1cc([N+](=O)[O-])ccc1NC(=O)C(=O)Nn1c(=S)[nH]c2ccccc2c1=O | – | – | > 100 | > 100 | – | > 100 | > 100 | > 100 |
| CCN(CC)CCNC(=O)C1COc2ccc(-c3cc(=O)c4ccccc4o3)cc2O1 (stereo not drawn) | 21.7 | 37.1 | 37.3 | 32.5 | 31.1 | 46.7 | – | – |
| C=C1C(=O)OC2C=C(C)CC3C=C(CCC=C(C)CCC12)C(=O)O3 (stereo not drawn) | 85.1 | 93.2 | – | 135 | 123 | 78.5 | – | – |
| COC(=O)C12CCC(CC1=O)C2(C)C (stereo not drawn) | – | – | > 100 | – | – | > 100 | – | – |
| COc1ccc(/C=C2\CCC(C)(CN(C)C)C2=O)cc1Br (stereo not drawn) | – | – | 33.1 | 32.4 | – | > 100 | 31.8 | – |
| Cn1cnc([N+](=O)[O-])c1Sc1nnc(-c2ccc(Cl)cc2)n1C | – | – | – | 27.5 | – | 18.1 | 22.3 | 30.9 |
| Cc1c2cc[n+](C)cc2c(C)c2c1[nH]c1ccc(OC(C)(C)C)cc12 | – | – | – | > 100 | – | > 100 | > 100 | – |
| CCC(/C(=N/NC(=O)C[N+](C)(C)C)c1ccccc1)C1OC(=O)c2ccccc21 (stereo not drawn) | – | – | > 100 | > 100 | – | – | > 100 | > 100 |
| COc1ccc(NC(=O)CC2SC(=Nc3ccc(Cl)cc3C)NC2=O)c([N+](=O)[O-])c1 (stereo not drawn) | – | – | – | > 100 | – | – | > 100 | > 100 |
| Nc1ccc2ncc(NCc3ccc(F)cc3)nc2c1 | – | – | 86.1 | > 100 | – | > 100 | > 100 | – |
| Cc1nc2cc3[nH]c4ccccc4c(=O)c3cc2s1 | – | – | > 100 | > 100 | – | > 100 | > 100 | – |
| COc1ccc(-c2oc(C=Nc3ccccc3)c([N+](=O)[O-])c2-c2ccc(OC)c(OC)c2)cc1OC | – | – | > 100 | > 100 | – | – | > 100 | – |
| Cc1nc(-n2nc(-c3ccccc3)cc2-c2ccccc2)sc1C(/C=C\c1ccc([N+](=O)[O-])cc1)=N/NC(=S)NN | – | – | – | > 100 | – | – | > 100 | – |
| O=C(C#Cc1ccccc1)Nc1ccccc1CC(c1c[nH]c2ccccc12)c1c[nH]c2ccccc12 | – | – | 70 | 47.8 | – | – | 28.4 | 74.6 |
| CN(C)c1ccc(/C=C(\C#N)C(=O)c2ccccc2)cc1Br | – | – | > 100 | – | – | > 100 | > 100 | > 100 |
| CCOC1=C2N=C(C(CC)c3ccc(F)cc3)N=C2C(=O)c2ccccc21 (stereo not drawn) | – | – | 40.1 | > 59.4 | – | – | > 90.3 | – |
| Nc1nc2c(nnn2C2C=C(CO)C(O)C2O)c(=O)[nH]1 (stereo not drawn) | – | – | > 100 | > 100 | – | > 100 | > 100 | – |
